Experimental findings from patent US10138233B2, “Imidazole compounds as modulators of FSHR and uses thereof” (Merck Patent GmbH, priority 2013, dated 2018) are described below.

A value given as a limit tells only on which side of the number the result lay.

In this experiment the target is T1, FSHR (Homo sapiens, UniProt P23945).
T1 construct: expressed in transfected cells; host or cells: CHO cells, clone Cho-FSHR-LUC-1-1-43
T1 sequence (P23945 18-695): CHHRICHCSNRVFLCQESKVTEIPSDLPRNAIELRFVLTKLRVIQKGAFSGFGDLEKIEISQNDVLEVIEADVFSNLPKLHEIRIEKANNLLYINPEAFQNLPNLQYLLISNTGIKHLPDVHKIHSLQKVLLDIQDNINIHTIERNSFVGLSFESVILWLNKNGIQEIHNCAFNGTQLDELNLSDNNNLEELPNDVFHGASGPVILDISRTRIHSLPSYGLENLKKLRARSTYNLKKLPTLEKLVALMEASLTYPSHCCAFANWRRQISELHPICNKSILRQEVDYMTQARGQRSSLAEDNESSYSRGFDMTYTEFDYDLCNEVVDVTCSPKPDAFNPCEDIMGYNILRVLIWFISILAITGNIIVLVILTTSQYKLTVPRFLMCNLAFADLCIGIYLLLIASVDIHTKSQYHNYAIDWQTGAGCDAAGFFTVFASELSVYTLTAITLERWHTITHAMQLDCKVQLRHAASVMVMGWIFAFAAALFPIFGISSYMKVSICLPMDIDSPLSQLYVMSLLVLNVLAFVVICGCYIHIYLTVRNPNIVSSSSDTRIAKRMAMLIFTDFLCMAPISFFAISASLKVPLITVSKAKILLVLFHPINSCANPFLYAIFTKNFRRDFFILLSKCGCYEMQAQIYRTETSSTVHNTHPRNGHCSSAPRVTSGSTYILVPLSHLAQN
In words: EC50 of cyclic AMP production in CHO FSHR cells + EC20 FSH (Assay A). The class given is cell-based. The following applies: CHO-FSHR-LUC cells, in presence of EC20 FSH, cAMP HTRF, 1 h 37° C. The method, then:
EC50 of cyclic AMP production in CHO FSHR cells+EC20 FSH (Assay A)
2500 Cho-FSHR-LUC-1-1-43 cells were plated per well in 5 μl of phenol red free DMEM/F12+1% FBS. […] Cells were assayed by adding 100 μl of 2×EC20 FSH/IBMX in DMEM/F12+0.1% BSA) by Multidrop to 2 μl of test compound stamped in 384 well plates (compounds are diluted 1:50). […] The compound plate map was as follows: Column 1: 2 μl of DMSO; Column 2: 2 μl of DMSO; Columns 3-12 and 13-24: 2 μl of test compound, diluted 1:4 in 100% DMSO, or 2 μl of FSH, diluted 1:4 in DMEM/F12+0.1% BSA. The starting concentration for FSH was 50 nM (final concentration was 0.5 nM). […] 10 μl of mixed HTRF (CisBio #62AM4PEC) reagents were added per well and incubated at room temperature for 1 h. The plates were read on Envision using the cAMP HTRF—low volume 384 well protocol. […] Values given in percent (%) indicate the percental effect (response) at a certain concentration of agonist relative to the maximum response of the FSH standard.
(In general: Time-resolved FRET reads energy transfer from a long-lived donor to a nearby acceptor.)
For the compound `COc1cc2c(cc1OC(C)C)-n1c(-c3ccccc3Cl)nc(C(=O)N(C)C(C)(C)C)c1CC2` [Compound 67], the EC50 (usually the concentration needed to bring the measured effect to its halfway point) was 100 to 1000 nM.

As for `COc1cc(-c2nc(C(=O)N3CCOCC3(C)C)c3n2-c2cc(OC(C)C)c(OC)cc2CC3)ccc1F` [Compound 108], the EC50 is 1000 to 5000 nM.

As for `COc1cc2c(cc1OC(C)C)-n1c(C3=CCCCO3)nc(C(=O)N3CCOCC3(C)C)c1CC2` [Compound 50], the EC50 fell in the range of 100 to 1000 nM.

`COc1cc2c(cc1OC(C)C)-n1c(-c3cc(Cl)c(F)cc3F)nc(C(=O)N3CCOCC3(C)C)c1CC2` [Compound 113]: the half-maximal effective concentration (EC50) was in the range of 1000 to 5000 nM.

Take `COc1cc2c(cc1OC(C)C)-n1c(-c3cccc(C(F)(F)F)c3)nc(C(=O)N(C)C(C)(C)C)c1CC2` [Compound 68]: the EC50 fell in the range of 100 to 1000 nM.

As for `COc1cc2c(cc1OC(C)C)-n1c(-c3ccc(C#N)cc3)nc(C(=O)N(C)C(C)(C)C)c1CC2` [Compound 64], the EC50 fell in the range of 1000 to 5000 nM.

Consider `COc1cc2c(cc1OC(C)C)-n1c(C#N)nc(C(=O)N3CCOCC3(C)C)c1CC2` [Compound 145, 3-(3,3-Dimethyl-morpholine-4-carbonyl)-8-isopropoxy-7-methoxy-4,5-dihydro-imidazo[1,5-a]quinoline-1-carbonitrile], for which the EC50 was more than 5000 nM.

As to `COc1cc2c(cc1-c1ccn(C)n1)-n1c(-c3ccc(C)s3)nc(C(=O)N3CCOCC3(C)C)c1CC2` [Compound 147, (3,3-dimethylmorpholino)(7-methoxy-8-(1-methyl-1H-pyrazol-3-yl)-1-(5-methylthiophen-2-yl)-4,5-dihydroimidazo[1,5-a]quinolin-3-yl)methanone], the EC50 lay within 100 to 1000 nM.

As for `COc1cc2c(cc1OC(C)C)-n1c(C3=CCC(C)CC3)nc(C(=O)N3CCOCC3(C)C)c1CC2` (centres unmarked) [Compound 86], the EC50 was 1000 to 5000 nM.

For the compound `COc1cc2c(cc1OC(C)C)-n1c(C3CCCCO3)nc(C(=O)N3CCOCC3(C)C)c1CC2` (centres unmarked) [Compound 85, (3,3-Dimethyl-morpholin-4-yl)-[8-isopropoxy-7-methoxy-1-(tetrahydro-pyran-2-yl)-4,5-dihydro-imidazo[1,5-a]quinolin-3-yl]-methanone], the half-maximal effective concentration (EC50) is more than 5000 nM.

For `COc1cc2c(cc1OC(C)C)-n1c(-c3cc(F)ccc3OC)nc(C(=O)N3CCOCC3(C)C)c1CC2` [Compound 104], the concentration for a half-maximal effect (EC50) lay in the range of 1000 to 5000 nM.

In the case of `COc1cc2c(cc1OC(C)C)-n1c(-c3cccc(OC)c3F)nc(C(=O)N3CCOCC3(C)C)c1CC2` [Compound 112], the concentration for a half-maximal effect (EC50) lay in the range of 1000 to 5000 nM.

With `COc1cc2c(cc1OC(C)C)-n1c(-c3ccn(C)n3)nc(C(=O)N3CCOCC3(C)C)c1CC2` [Compound 43], the EC50 was more than 5000 nM.

Consider `COc1cc2c(cc1OC(C)C)-n1c(-c3cncn3C)nc(C(=O)N3CCOCC3(C)C)c1CC2` [Compound 47], for which the EC50 is more than 5000 nM.

For `COc1cc2c(cc1OC(C)C)-n1c(-c3cccc4c3OCCO4)nc(C(=O)N3CCOCC3(C)C)c1CC2` [Compound 121], the EC50 is more than 5000 nM.

Consider `[2H]C([2H])([2H])NC(=O)c1cc2c(cc1OC)CCc1c(C(=O)N(C)C(C)(C)C)nc(-c3cccs3)n1-2` [Compound 90, 7-Methoxy-1-thiophen-2-yl-4,5-dihydro-imidazo[1,5-a]quinoline-3,8-dicarboxylic acid 3-(tert-butyl-methyl-amide) 8-methyl-d3-amide], for which the EC50 was in the range of 1000 to 5000 nM.

Take `COc1cc2c(cc1OC(C)C)-n1c(-c3cccc4cn[nH]c34)nc(C(=O)N3CCOCC3(C)C)c1CC2` [Compound 89]: the EC50 fell in the range of 1000 to 5000 nM.

As to `COc1cc2c(cc1OC(C)C)-n1c(-c3cccs3)nc(C(=O)NC3(C)COC3)c1CO2` [Compound 138, 8-Isopropoxy-7-methoxy-1-thiophen-2-yl-4H-5-oxa-2,9b-diaza-cyclopenta[a]naphthalene-3-carboxylic acid (3-methyl-oxetan-3-yl)-amide], the half-maximal effective concentration (EC50) lay in the range of 1000 to 5000 nM.

Regarding `COc1cc2c(cc1OC(C)C)-n1c(C3CCCC3)nc(C(=O)N3CCOCC3(C)C)c1CC2` [Compound 83, (1-Cyclopentyl-8-isopropoxy-7-methoxy-4,5-dihydro-imidazo[1,5-a]quinolin-3-yl)-(3,3-dimethyl-morpholin-4-yl)-methanone], the concentration for a half-maximal effect (EC50) was in the range of 100 to 1000 nM.

`COc1cc2c(cc1CC(C)C)-n1c(-c3cc[nH]n3)nc(C(=O)N(C)C(C)(C)C)c1CC2` [Compound 12, 8-Isobutyl-7-methoxy-1-(1H-pyrazol-3-yl)-4,5-dihydro-imidazo[1,5-a]quinoline-3-carboxylic acid tert-butyl-methyl-amide]: the EC50 was more than 5000 nM.

With `[2H]C([2H])([2H])N(C(=O)c1nc(-c2cccs2)n2c1CCc1cc(OC)c(CC(C)C)cc1-2)C1(C)COC1` [Compound 58, 8-Isobutyl-7-methoxy-1-thiophen-2-yl-4,5-dihydro-imidazo[1,5-a]quinoline-3-carboxylic acid methyl-d3-(3-methyl-oxetan-3-yl)-amide], the concentration giving a half-maximal response (EC50) is less than 100 nM.

For the compound `COc1cc2c(cc1-c1ccn(C)n1)-n1c(-c3ccn(C)c3)nc(C(=O)N3CCOCC3(C)C)c1CC2` [Compound 73, (3,3-Dimethyl-morpholin-4-yl)-[7-methoxy-8-(1-methyl-1H-pyrazol-3-yl)-1-(1-methyl-1H-pyrrol-3-yl)-4,5-dihydro-imidazo[1,5-a]quinolin-3-yl]-methanone], the EC50 was more than 5000 nM.

As for `COc1cc2c(cc1-c1n[nH]c(=O)o1)-n1c(-c3cccs3)nc(C(=O)N(C)C(C)(C)C)c1CC2` [Compound 132, 7-Methoxy-8-(5-oxo-4,5-dihydro-[1,3,4]oxadiazol-2-yl)-1-thiophen-2-yl-4,5-dihydro-imidazo[1,5-a]quinoline-3-carboxylic acid tert-butyl-methyl-amide], the EC50 is 100 to 1000 nM.

`COc1cc2c(cc1OC(C)C)-n1c(-c3sc(C)cc3C)nc(C(=O)N3CCOCC3(C)C)c1CC2` [Compound 99]: the EC50 was in the range of 100 to 1000 nM.

Consider `COc1cc2c(cc1CC(C)C)-n1c(-c3cc(C)cs3)nc(C(=O)N(C)C(C)(C)C)c1CC2` [Compound 95, 8-Isobutyl-7-methoxy-1-(4-methyl-thiophen-2-yl)-4,5-dihydro-imidazo[1,5-a]quinoline-3-carboxylic acid tert-butyl-methyl-amide], for which the concentration giving a half-maximal response (EC50) was 100 to 1000 nM.

With `COc1cc2c(cc1CC(C)C)-n1c(C3CCOC3)nc(C(=O)N(C)C(C)(C)C)c1CC2` (centres unmarked) [Compound 94, N-(tert-butyl)-8-isobutyl-7-methoxy-N-methyl-1-(tetrahydrofuran-3-yl)-4,5-dihydroimidazo[1,5-a]quinoline-3-carboxamide], the EC50 was 1000 to 5000 nM.

Consider `COc1cc2c(cc1CC(C)C)-n1c(-c3cccs3)nc(C(=O)NC3(C)COC3)c1CC2` [Compound 55, 8-Isobutyl-7-methoxy-1-thiophen-2-yl-4,5-dihydro-imidazo[1,5-a]quinoline-3-carboxylic acid (3-methyl-oxetan-3-yl)-amide], for which the concentration for a half-maximal effect (EC50) was in the range of 100 to 1000 nM.

`COc1cc2c(cc1OC(C)C)-n1c(C3CCOCC3)nc(C(=O)N3CCOCC3(C)C)c1CC2` [Compound 84, (3,3-Dimethyl-morpholin-4-yl)-[8-isopropoxy-7-methoxy-1-(tetrahydro-pyran-4-yl)-4,5-dihydro-imidazo[1,5-a]quinolin-3-yl]-methanone]: the EC50 was more than 5000 nM.

For the compound `COc1cc2c(cc1OC(C)C)-n1c(-c3cn[nH]c3)nc(C(=O)N3CCOCC3(C)C)c1CC2` [Compound 61], the EC50 is more than 5000 nM.

With `COc1cc2c(cc1-c1ccn(C)c1)-n1c(-c3cccs3)nc(C(=O)NC3(C)COC3)c1CC2` [Compound 98, 7-Methoxy-8-(1-methyl-1H-pyrrol-3-yl)-1-thiophen-2-yl-4,5-dihydro-imidazo[1,5-a]quinoline-3-carboxylic acid (3-methyl-oxetan-3-yl)-amide], the concentration for a half-maximal effect (EC50) lay in the range of 1000 to 5000 nM.

On to `COc1cc2c(cc1CC(C)C)-n1c(-c3cccn3C(=O)OC(C)(C)C)nc(C(=O)N3CCOCC3(C)C)c1CC2` [Compound 26, 2-[3-(3,3-Dimethyl-morpholine-4-carbonyl)-8-isobutyl-7-methoxy-4,5-dihydro-imidazo[1,5-a]quinolin-1-yl]-pyrrole-1-carboxylic acid tert-butyl ester], for which the EC50 is 1000 to 5000 nM.

For the compound `COc1cc2c(cc1OC(C)C)-n1c(-c3cnc(C)s3)nc(C(=O)N(C)C(C)(C)C)c1CC2` [Compound 16], the concentration giving a half-maximal response (EC50) is 1000 to 5000 nM.
